We go through 13 compounds from ChEMBL document CHEMBL1201862, “PubChem BioAssay data set” (2004).

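Tested at 5 concentrations; 48 h exposure; 96-well plates; endpoints linearly interpolated, else capped at highest concentration. GI50: concentration for 50% inhibition of growth.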 Active and inactive are the calls of the source. Rule as the data show it: active = GI50 up to about 1.1 µM and inactive = higher.

Test systems include CAKI-1; HCC 2998; HCT-116; HL-60; HOP-62; Malme-3M; NCI-H23; RPMI-8226; RXF 393; SF-268; SF-295; SK-MEL-28; SK-MEL-5; SR; SW-620; UACC-62; DU-145; MDA-MB-231; MDA-N.
Assay in all cases: NCI anticancer screen, dose series, 48 h

Turning to `O=NN(CCCl)C(=O)NCc1ccc[n+]([O-])c1`, the GI50 with CAKI-1 was > 100 µM (inactive); in the experiment with HCC 2998 it was > 100 µM (inactive); in the experiment with HCT-116, > 100 µM (inactive); in the experiment on HL-60, 76.4 µM (inactive); with HOP-62, 54 µM (inactive); in the experiment with Malme-3M, > 100 µM (inactive). Besides, the GI50 in the experiment on NCI-H23 was > 100 µM (inactive); in the experiment on RPMI-8226 it was > 100 µM (inactive); in the experiment on RXF 393, > 100 µM (inactive); in the experiment with SF-268 it was 37.2 µM (inactive); in the experiment with SF-295, 64.1 µM (inactive); in the experiment on SK-MEL-28 it was > 100 µM (inactive). Also, the GI50 was > 100 µM (inactive) in the experiment with SK-MEL-5, 33 µM (inactive) with SR, > 100 µM (inactive) in the experiment with SW-620 and 11.7 µM (inactive) in the experiment with UACC-62.

On to `COc1ccc(-c2cc3ccccc3[nH]c2=O)cc1OC`, for which the GI50 with CAKI-1, in the experiment on HCC 2998, in the experiment with HCT-116, in the experiment on HL-60, in the experiment on HOP-62 and with Malme-3M was > 100 µM (inactive) throughout. Moreover, the GI50 in the experiment with NCI-H23 was > 100 µM (inactive); in the experiment on RPMI-8226, > 100 µM (inactive); with RXF 393, 47.5 µM (inactive); in the experiment with SF-268 it was > 100 µM (inactive); in the experiment on SF-295, > 100 µM (inactive); in the experiment with SK-MEL-28, > 100 µM (inactive). For the same compound, the GI50 with SR, in the experiment on SW-620 and in the experiment with UACC-62 was > 100 µM (inactive) each time.

In the case of `N#CC(N)(C(=O)C(=O)NCCCNC(=O)C(=O)C(N)(C#N)c1ccc(Cl)cc1)c1ccc(Cl)cc1` (stereo not given), the GI50 in the experiment on CAKI-1 is > 100 µM (inactive); with HCC 2998 it was > 100 µM (inactive); in the experiment on HCT-116, > 100 µM (inactive); in the experiment with HL-60, 54.7 µM (inactive); in the experiment on HOP-62 it was > 100 µM (inactive); with Malme-3M it was > 100 µM (inactive). For the same compound, the GI50 with NCI-H23, with RPMI-8226, in the experiment on RXF 393, with SF-268, in the experiment with SF-295 and with SK-MEL-28 was > 100 µM (inactive) in each case. The GI50 in the experiment on SK-MEL-5, in the experiment on SR, in the experiment on SW-620 and in the experiment with UACC-62 was > 100 µM (inactive) in each case.

As to `Cc1ccc(C)c(N2C(=O)C(=O)C(c3nc4ccccc4o3)C(=O)C2=O)c1`, the GI50 was > 100 µM (inactive) with CAKI-1; > 100 µM (inactive) in the experiment with HCC 2998; 27.1 µM (inactive) with HCT-116; 17.3 µM (inactive) with HL-60; > 100 µM (inactive) with HOP-62; 49.2 µM (inactive) in the experiment with Malme-3M. For the same compound, the GI50 in the experiment with NCI-H23 is 43.6 µM (inactive); in the experiment on RXF 393 it was > 100 µM (inactive); in the experiment on SF-268 it was > 100 µM (inactive); with SF-295, > 100 µM (inactive); with SK-MEL-28, 34 µM (inactive); with SK-MEL-5, 67.5 µM (inactive). The GI50 was 28.8 µM (inactive) in the experiment with SR, 46.3 µM (inactive) in the experiment with SW-620 and 43.9 µM (inactive) in the experiment with UACC-62.

For the compound `CC1=COC(C)(C=C(C#N)C#N)CC1` (stereo not given), the GI50 in the experiment with DU-145 is > 100 µM (inactive); in the experiment on HCC 2998 it was > 100 µM (inactive); in the experiment with HCT-116 it was 33 µM (inactive); in the experiment with HL-60 it was 21.1 µM (inactive); in the experiment on HOP-62, > 100 µM (inactive); with MDA-MB-231, 67.5 µM (inactive). For the same compound, the GI50 is > 100 µM (inactive) in the experiment on Malme-3M; 61 µM (inactive) with NCI-H23; 38.5 µM (inactive) in the experiment on RPMI-8226; > 100 µM (inactive) in the experiment on RXF 393; > 100 µM (inactive) with SF-268; > 100 µM (inactive) in the experiment on SF-295. Moreover, the GI50 with SK-MEL-28 was 71 µM (inactive); in the experiment with SK-MEL-5 it was 58.1 µM (inactive); with SR, 31 µM (inactive); with SW-620, 50.7 µM (inactive); in the experiment on UACC-62, 57.7 µM (inactive).

Take `CSC1=N/C(=C\c2cccs2)C(=O)N1CN1CCCCC1`: the GI50 in the experiment with DU-145 is > 100 µM (inactive); with HCT-116, 52.5 µM (inactive); in the experiment on HOP-62, > 100 µM (inactive); in the experiment on MDA-MB-231, > 100 µM (inactive); with MDA-N, > 100 µM (inactive); in the experiment with Malme-3M, 28.3 µM (inactive). The GI50 in the experiment with NCI-H23 is > 100 µM (inactive); with RPMI-8226 it was 22.1 µM (inactive); in the experiment on SF-268, 37.8 µM (inactive); with SF-295, > 100 µM (inactive); in the experiment on SK-MEL-28, > 100 µM (inactive); in the experiment with SK-MEL-5, 66.8 µM (inactive). Moreover, the GI50 in the experiment on SR is 32.2 µM (inactive); with SW-620, 36.9 µM (inactive); in the experiment on UACC-62, 93.3 µM (inactive).

`COc1cccc2nc3cc(C)c(C)cc3nc12`: the GI50 in the experiment with CAKI-1, in the experiment with HCC 2998, with HCT-116, with HL-60, with HOP-62 and in the experiment on Malme-3M was > 100 µM (inactive) in each case. In addition, the GI50 with NCI-H23 was > 100 µM (inactive); in the experiment on RXF 393, > 100 µM (inactive); with SF-268, > 100 µM (inactive); in the experiment on SF-295, > 100 µM (inactive); in the experiment on SK-MEL-28 it was > 100 µM (inactive); in the experiment with SK-MEL-5, 97.5 µM (inactive). Besides, the GI50 in the experiment with SR, in the experiment with SW-620 and in the experiment with UACC-62 was > 100 µM (inactive) each time.

`S=C1Cc2c([nH]c3ccccc23)-c2ccccc2N1`: the GI50 in the experiment with CAKI-1 was 23.3 µM (inactive); in the experiment on DU-145 it was 41.3 µM (inactive); in the experiment on HCT-116, 25.1 µM (inactive); in the experiment with HL-60, > 100 µM (inactive); in the experiment with HOP-62, 25.9 µM (inactive); in the experiment with MDA-MB-231 it was 42.9 µM (inactive). The GI50 is 96.8 µM (inactive) with MDA-N; 69.2 µM (inactive) in the experiment on Malme-3M; 79.1 µM (inactive) in the experiment with NCI-H23; > 100 µM (inactive) with RPMI-8226; 18.3 µM (inactive) in the experiment with RXF 393; 34.4 µM (inactive) in the experiment with SF-268. The GI50 was 98.6 µM (inactive) in the experiment with SF-295; > 100 µM (inactive) in the experiment with SK-MEL-28; 42 µM (inactive) in the experiment with SK-MEL-5; 42 µM (inactive) in the experiment with SR; > 100 µM (inactive) with SW-620; 72.3 µM (inactive) in the experiment on UACC-62.

For the compound `COc1cc2c(cc1OC)[C@@H](Nc1ccc(F)cc1)C1COC(=O)[C@@H]1C2c1cc(OC)c(O)c(OC)c1` (stereo not given in full), the GI50 in the experiment on CAKI-1 was 0.384 µM (active); with HCC 2998, 2.65 µM (inactive); in the experiment on HCT-116 it was 3.56 µM (inactive); in the experiment with HL-60 it was 0.0982 µM (active); with HOP-62, 0.128 µM (active); with Malme-3M, 3.07 µM (inactive). The GI50 in the experiment with NCI-H23 is 0.632 µM (active); in the experiment on RPMI-8226, 0.16 µM (active); in the experiment on RXF 393, 3.4 µM (inactive); with SF-268, 2.1 µM (inactive); in the experiment with SF-295, 0.267 µM (active); in the experiment with SK-MEL-28, 21.9 µM (inactive). Further, the GI50 in the experiment with SK-MEL-5 was 1.93 µM (inactive); in the experiment on SR it was 0.0421 µM (active); with SW-620 it was 0.512 µM (active); in the experiment with UACC-62 it was 0.589 µM (active).

Turning to `NC1=NC(=O)C2(NN1)c1ccccc1-c1ccccc12`, the GI50 was > 10 µM (inactive) in the experiment on CAKI-1; > 10 µM (inactive) with HCC 2998; > 10 µM (inactive) in the experiment with HCT-116; 8.99 µM (inactive) with HL-60; > 10 µM (inactive) in the experiment with HOP-62; > 10 µM (inactive) in the experiment on MDA-N. Besides, the GI50 in the experiment with Malme-3M, in the experiment on NCI-H23, in the experiment on RPMI-8226, in the experiment on RXF 393, with SF-268 and in the experiment on SF-295 was > 10 µM (inactive) throughout. Besides, the GI50 in the experiment with SK-MEL-28, in the experiment with SK-MEL-5, with SR and in the experiment with SW-620 was > 10 µM (inactive) each time.

Regarding `C1CCN(c2nsc(N3CCCCC3)n2)CC1`, the GI50 was > 100 µM (inactive) with CAKI-1; > 100 µM (inactive) in the experiment with HCC 2998; > 100 µM (inactive) in the experiment with HCT-116; 92 µM (inactive) with HL-60; > 100 µM (inactive) in the experiment on HOP-62; > 100 µM (inactive) in the experiment on Malme-3M. Also, the GI50 with NCI-H23 was > 100 µM (inactive); in the experiment on RPMI-8226 it was 87.3 µM (inactive); in the experiment on RXF 393, > 100 µM (inactive); in the experiment with SF-268, > 100 µM (inactive); with SF-295 it was > 100 µM (inactive); in the experiment on SK-MEL-28, > 100 µM (inactive). In addition, the GI50 in the experiment with SK-MEL-5, in the experiment with SR, with SW-620 and in the experiment with UACC-62 was > 100 µM (inactive) throughout.

On to `COC(=O)c1cc2c3ccccc3n(C(C)=O)c2cn1`, for which the GI50 is 23.2 µM (inactive) in the experiment on CAKI-1; > 100 µM (inactive) in the experiment on HCC 2998; > 100 µM (inactive) with HCT-116; 35.7 µM (inactive) in the experiment on HL-60; 59.6 µM (inactive) in the experiment with HOP-62; > 100 µM (inactive) in the experiment with Malme-3M. Besides, the GI50 with NCI-H23 is 83.4 µM (inactive); in the experiment with RPMI-8226, 45.4 µM (inactive); with RXF 393 it was 43.9 µM (inactive); in the experiment on SF-295 it was > 100 µM (inactive); in the experiment on SK-MEL-28, > 100 µM (inactive); with SK-MEL-5, > 100 µM (inactive). Also, the figures for the GI50 in the experiment on SR, in the experiment with SW-620 and in the experiment with UACC-62 were 45.6 µM (inactive), > 100 µM (inactive) and 76.9 µM (inactive), respectively.

Regarding `CC1=CC(=O)CCC2(C)C1CC[C@@H]2OC=O` (stereo not given in full), the GI50 with CAKI-1 was > 100 µM (inactive); with HCC 2998 it was > 100 µM (inactive); in the experiment with HCT-116, > 100 µM (inactive); with HL-60, > 100 µM (inactive); with HOP-62, 53.6 µM (inactive); in the experiment with NCI-H23, > 100 µM (inactive). Also, the GI50 in the experiment with RPMI-8226, with RXF 393, in the experiment with SF-268, with SF-295, in the experiment with SK-MEL-28 and in the experiment with SK-MEL-5 was > 100 µM (inactive) each time. Besides, the GI50 with SR, in the experiment on SW-620 and with UACC-62 was > 100 µM (inactive) throughout.
